Reference: patent US6410515B1, “Peptide, a method for its preparation and a pharmaceutical composition containing the peptide” (Immunotech Developments Inc., priority 1995, dated 2002)

Assays:
[1] = test system: hyperthermic bone marrow cells (CFU-S); assay: Survival of CFU-S of bone marrow after heating at 42° C.; assay type: cell-based
Procedure: Hyperthermia is used in the treatment of various cancer types. When treating leukosis, the damaged bone marrow cells are heated at approximately 41-42° C. in order to kill malignant cells as they are more sensitive to heat. However, some non-malignant stem cells may also be affected. Consequently, the ability of the iDD peptide to protect cells during hyperthermia was tested. A suspension of the bone marrow, previously incubated for 1 hour at 37° C. in the presence of iDD (0.2 μg/4×10^6 cells), was heated for 30 minutes at 42° C. It was then diluted until the necessary concentration was reached and transplanted to the lethally radiated recipients The quantity of the exogenous colonies in the spleen was determined on the ninth day. […] The decrease of the colony formation under the action of iDD is not critical, because its colony-inhibiting action is reversible.

(CBA×C57B1)F1 mice = assay: Chronic graft versus host reaction (GVHR); assay type: in vivo; settings: for Mouse weight: iDD 10 μg/kg/injection
Procedure: The effect of the peptide on a chronic “graft versus host reaction ” (GVHR) was studied, using the mode l described by Bundic et al. (Exp. Immunol. 1995, 99, p.467). Chronic GVHR was induced in hybrid non-irradiated animals by injecting them twice with large amounts (100 mln) of spleen cells of one of the parents.
Recipients were (CBA×C57B1)F1 mice, and donors of spleen cells were mice of the strain C57B1. The preparation iDD was administered in the same dose (10 μg/kg/injection) as in the tests on transplantation of allogenic bone marrow. Th e five-day treatment course began 24 hours after the first injection of spleen cells and lasted three weeks. Control group mice received Medium 199 in the same amount and at the same time as test mice received the peptide. Each group consisted of 15 animals.
Indicators of the degree of GVHR development were animal weight and splenomegaly (as measured by the increase in recipient's spleen weight on day 21). The effectiveness of the preparation was assessed by splenomegaly suppression expressed in % to control (splenomegaly in the control group was taken for […]). The interval between the first and the second injections of spleen cells was 7 days.
On day 21, a sharp increase in weight was recorded in 70% of control mice and 55% of test mice.

Substance: H-D-iGlu-D-Trp-OH [iDD]
- Medium quantity of colonies ([1]; iDD 0.2 μg/4×10^6 cells + heating 30 minutes at 42° C., control + heating 5.9 ± 0.6): 6.9 ± 0.6
- Medium quantity of colonies ([1]; iDD 0.2 μg/4×10^6 cells, no heating, control 11.4 ± 0.4): 6.0 ± 0.6
- Survival of CFU-S, % ([1]; iDD + heating, control + heating 51.7): 115%
- Survival of CFU-S, % ([1]; iDD, no heating (reference)): 100%
- Survival rate ((CBA×C57B1)F1 mice; 21 days, control 80%): 100%
- Weight loss throughout the experiment ((CBA×C57B1)F1 mice; 21 days, control group weight loss 3 g): practically no weight loss
- Splenomegaly suppression, % ((CBA×C57B1)F1 mice; day 21, relative to control): 26%
- Splenomegaly ((CBA×C57B1)F1 mice; day 21, control 12,6 ± 1,2, intact 3,4 ± 0,3): 10,2 ± 1,0 mg spleen per mg body weight
- Mice with sharp increase in weight on day 21 ((CBA×C57B1)F1 mice; day 21, control 70%): 55%
- Mouse weight ((CBA×C57B1)F1 mice; day 0 after the first injection of spleen cells, control 22,3 ± 0,9): 22,6 ± 0,7 g
- Mouse weight ((CBA×C57B1)F1 mice; day 7, control 21,7 ± 0,8): 25,0 ± 0,6 g
- Mouse weight ((CBA×C57B1)F1 mice; day 14, control 18,3 ± 0,9): 23,3 ± 1,0 g
- Mouse weight ((CBA×C57B1)F1 mice; day 21, control 19,3 ± 1,1): 22,7 ± 0,9 g
